Measurements from patent US8865623B2, “Herbicidally active cyclic diones and derivatives thereof, processes for their preparation, compositions, and method of controlling weeds” (Syngenta Limited, priority 2009, dated 2014).

Tests used:
Format in all cases: in vivo
[1] = tested on: Alopecurus myosuroides (ALOMY); assay: Pre-emergence herbicidal activity, glasshouse pot test; conditions: Alopecurus myosuroides, 312 h; Rate 250 g/ha; pre-emergence spray; evaluated after 13 days; read-out: Pre-emergence activity ALOMY (100=total damage to plant; 0=no damage to plant)
Method: (§1) Seeds of a variety of test species were sown in standard soil in pots. After cultivation for one day (pre-emergence) or after 8 days cultivation (post-emergence) under controlled conditions in a glasshouse (at 24/16° C., day/night; 14 hours light; 65% humidity), the plants were sprayed with an aqueous spray solution derived from the formulation of the technical active ingredient in acetone/water (50:50) solution containing 0.5% Tween 20 (polyoxyethelyene sorbitan monolaurate, CAS RN 9005-64-5). The test plants were then grown in a glasshouse under controlled conditions in a glasshouse (at 24/16° C., day/night; 14 hours light; 65% humidity) and watered twice daily. After 13 days for pre and post-emergence, the test was evaluated (100=total damage to plant; 0=no damage to plant).
(§2) Lolium perenne (LOLPE), Alopecurus myosuroides (ALOMY), Echinochloa crus-galli (ECHCG), and Avena fatua (AVEFA).

[2] = tested on: Echinochloa crus-galli (ECHCG); assay: as above; conditions: Echinochloa crus-galli, 312 h; Rate 250 g/ha; pre-emergence spray; evaluated after 13 days; read-out: Pre-emergence activity ECHCG (100=total damage to plant; 0=no damage to plant)
Method: as §1, §2

[3] = tested on: Avena fatua (AVEFA); assay: as above; conditions: Avena fatua, 312 h; Rate 250 g/ha; pre-emergence spray; evaluated after 13 days; read-out: Pre-emergence activity AVEFA (100=total damage to plant; 0=no damage to plant)
Method: as §1, §2

[4] = tested on: Lolium perenne (LOLPE); assay: as above; conditions: Lolium perenne, 312 h; Rate 250 g/ha; pre-emergence spray; evaluated after 13 days; read-out: Pre-emergence activity LOLPE (100=total damage to plant; 0=no damage to plant)
Method: as §1, §2

[5] = tested on: Alopecurus myosuroides (ALOMY); assay: Post-emergence herbicidal activity, glasshouse pot test; conditions: Alopecurus myosuroides, 312 h, rate 250 g/ha, evaluated after 13 days, glasshouse, read-out: Post-emergence activity ALOMY (100=total damage to plant; 0=no damage to plant)
Method: as §1, §2

[6] = tested on: Echinochloa crus-galli (ECHCG); assay: as above; conditions: Echinochloa crus-galli, 312 h, rate 250 g/ha, evaluated after 13 days, glasshouse, read-out: Post-emergence activity ECHCG (100=total damage to plant; 0=no damage to plant)
Method: as §1, §2

[7] = tested on: Avena fatua (AVEFA); assay: as above; conditions: Avena fatua, 312 h, rate 250 g/ha, evaluated after 13 days, glasshouse, read-out: Post-emergence activity AVEFA (100=total damage to plant; 0=no damage to plant)
Method: as §1, §2

[8] = tested on: Lolium perenne (LOLPE); assay: as above; conditions: Lolium perenne, 312 h, rate 250 g/ha, evaluated after 13 days, glasshouse, read-out: Post-emergence activity LOLPE (100=total damage to plant; 0=no damage to plant)
Method: as §1, §2

SMILES | pest or weed control at 250 g/ha [1] [%] | pest or weed control at 250 g/ha [2] [%] | pest or weed control at 250 g/ha [3] [%] | pest or weed control at 250 g/ha [4] [%] | pest or weed control at 250 g/ha [5] [%] | pest or weed control at 250 g/ha [6] [%] | pest or weed control at 250 g/ha [7] [%] | pest or weed control at 250 g/ha [8] [%]
CCc1ccc(Oc2ccc(Br)c(Cl)c2)cc1C1=C(O)C(C)(C)OC(C)(C)C1=O [Example A-10] | 0 | 90 | 20 | 30 | 100 | 100 | 90 | 100
CCc1ccc(Oc2ccc(Br)c(C)c2)cc1C1=C(O)C(C)(C)OC(C)(C)C1=O [Example A-11] | 0 | 0 | 0 | 0 | 50 | 60 | 20 | 50
CCc1ccc(Oc2ccc(Br)cc2C)cc1C1=C(O)C(C)(C)OC(C)(C)C1=O [Example A-12] | 0 | 0 | 0 | 0 | 20 | 70 | 0 | 50
CCc1ccc(Oc2ccccc2F)cc1C1=C(O)C(C)(C)OC(C)(C)C1=O [Example A-13] | 0 | 0 | 0 | 0 | 0 | 70 | 0 | 0
CCc1ccc(Oc2ccc(F)cc2F)cc1C1=C(O)C(C)(C)OC(C)(C)C1=O [Example A-14] | 0 | 0 | 0 | 0 | 0 | 100 | 10 | 40
CCc1ccc(Oc2ccc(Cl)cc2F)cc1C1=C(O)C(C)(C)OC(C)(C)C1=O [Example A-15] | 100 | 100 | 60 | 100 | 90 | 100 | 70 | 100
CCc1ccc(Oc2cccc(F)c2F)cc1C1=C(O)C(C)(C)OC(C)(C)C1=O [Example A-16] | 0 | 100 | 0 | 0 | 0 | 80 | 0 | 20
CCc1ccc(Oc2ccc(Cl)cc2Cl)cc1C1=C(O)C(C)(C)OC(C)(C)C1=O [Example A-19] | 50 | 100 | 70 | 80 | 60 | 100 | 60 | 90
CCc1ccc(Oc2ccc([N+](=O)[O-])cc2F)cc1C1=C(O)C(C)(C)OC(C)(C)C1=O [Example A-20] | 40 | 100 | 20 | 0 | 0 | 80 | 70 | 50
CCc1ccc(Oc2ccc(C#N)cc2F)cc1C1=C(O)C(C)(C)OC(C)(C)C1=O [Example A-21] | 0 | 30 | 0 | 20 | 100 | 100 | 60 | 70
CCc1ccc(Oc2ccc(F)cc2)cc1C1=C(O)C(C)(C)OC(C)(C)C1=O [Example A-22] | 20 | 80 | 10 | 60 | 20 | 100 | 30 | 30
CCc1ccc(Oc2ccc(Cl)cc2Br)cc1C1=C(O)C(C)(C)OC(C)(C)C1=O [Example A-23] | 70 | 90 | 70 | 90 | 80 | 100 | 80 | 90
CCc1ccc(Oc2ccc(F)c(Cl)c2)cc1C1=C(O)C(C)(C)OC(C)(C)C1=O [Example A-24] | 30 | 90 | 40 | 90 | 70 | 100 | 70 | 70
CCc1ccc(Oc2ccc(Br)cc2F)cc1C1=C(O)CC2(CCOCC2)CC1=O [Example A-25] | 70 | 90 | 80 | 80 | 90 | 100 | 100 | 90
CCc1ccc(Oc2ccc(Cl)cc2)cc1C1=C(O)CC(C)(C)CC1=O [Example A-26] | 70 | 100 | 40 | 80 | 80 | 100 | 40 | 70
CCc1ccc(Oc2ccc(Cl)cc2)cc1C1=C(O)CCCC1=O [Example A-27] | 40 | 100 | 60 | 60 | 30 | 90 | 40 | 30
CCc1ccc(Oc2ccc(F)cc2)cc1C1=C(O)CC(C)(C)CC1=O [Example A-28] | 20 | 70 | 0 | 40 | 30 | 80 | 20 | 40
CCc1ccc(Oc2ccc(F)cc2)cc1C1=C(O)CCCC1=O [Example A-29] | 0 | 40 | 10 | 30 | 0 | 70 | 0 | 10
CCc1ccc(Oc2ccc(Cl)cc2F)cc1C1=C(O)CC(C)(C)CC1=O [Example A-30] | 70 | 80 | 50 | 70 | 70 | 100 | 60 | 60
